Legend:
in vivo [1] = conditions: male, rat, iv
Protocol: Plasma pharmacokinetic parameters for clearance, volume of distribution, half-life and oral bioavailability were determined in rats from oral administration and IV administration studies. 4 male rats, typically weighing 225-260 gram, were fasted overnight prior to dosing. Compounds were prepared for oral and IV dosing by addition to a vehicle, depending on the dose used. For a typical preparation, 1 mg per mL (IV) or 1.5 mg per mL (oral) of test compound was added to vehicle comprised of 20% dimethyl sulfoxide (DMSO), 60% polyethylene glycol 400 (PEG400) and 20% water. Intravenous (IV) formulation was administered to two rats via pre-cannulated jugular vein, and oral dosing was administered to two rats via oral gavage. Blood was collected by pre-cannulated artery, typically at predose, 2, 8, 15, 30 min, 1, 2, 4, 6, and 8 hours post-dose for IV, and at predose, 15, 30 mins, 1, 2, 4, 6, 8 hours for oral dosing. Samples were collected in K2EDTA tubes, stored on ice, and centrifuged. Plasma was transferred to a micro titer plate and stored at −70° C. until analysis. Plasma samples were extracted using protein precipitation and analyzed by liquid chromatography separation followed by mass spec detection (LC-MS/MS), using a standard curve for each compound. Plasma pharmacokinetic parameters were calculated for IV and oral dosing data by non-compartmental methods. Oral bioavailability was determined as the ratio of the dose-normalized plasma area under the curve (AUC) following oral dosing vs. IV dosing. Plasma pharmacokinetic parameters for clearance, volume of distribution, half-life and mean residence time (MRT) were determined in rats from IV cassette administration studies. Two male rats typically weighing 225-260 gram, were fasted overnight prior to dosing. Compounds were prepared for IV dosing by addition to a vehicle, depending on the dose used. For a typical preparation, 1 mg per mL (IV) of up to 5 test compounds were added to vehicle comprised of 20% dimethyl sulfoxide (DMSO), 60% polyethylene glycol 400 (PEG400) and 20% water. IV formulation was administered to two rats via pre-cannulated jugular vein. Blood was collected by pre-cannulated artery, typically at predose, 2, 8, 15, 30 mins, 1, 2, 4, 6, and 8 hours postdose. Samples were collected in K2EDTA tubes, stored on ice, and centrifuged. Plasma was transferred to a micro titer plate and stored at −70° C. until analysis. Plasma samples were extracted using protein precipitation and analyzed by liquid chromatography separation followed by mass spec detection (LC-MS/MS), using a standard curve for each compound. Plasma pharmacokinetic parameters were calculated by non-compartmental methods.

[2] = test system: Mycobacterium tuberculosis (Mtb-GFP; H37Rv pMSP12::GFP); type: cell-based; conditions: pH 6.8, 7-day growth, 95% growth inhibition; for Mtb Cho MITC95: cholesterol as carbon source; for Mtb Glu MITC95: glucose as carbon source
in vivo [3] = conditions: male, dog, iv
Protocol: Plasma pharmacokinetic parameters for clearance, volume of distribution, half-life, mean residence time (MRT) and oral bioavailability were determined in dogs from oral administration and IV administration studies. Four male dogs, typically weighing 8-12 kilograms, were fasted overnight prior to dosing. Compounds were prepared for oral and IV dosing by addition to a vehicle, depending on the dose used. For a typical preparation, 1 mg per mL (IV) or 1.5 mg per mL (oral) of test compound was added to vehicle comprised of 20% dimethyl sulfoxide (DMSO), 60% polyethylene glycol 400 (PEG400) and 20% water. IV formulation was administered to two dogs via the saphenous or cephalic vein, and oral dosing was administered to two dogs via oral gavage. Blood was collected by the cephalic or jugular vein, typically at predose, 2, 8, 15, 30 mins, 1, 2, 4, 6, 8 and 24 hours post-dose for IV, and at predose, 15, 30 mins, 1, 2, 4, 6, 8, and 24 hours for oral dosing. Samples were collected in K2EDTA tubes, stored on ice, and centrifuged. Plasma was transferred to a micro titer plate and stored at −70° C. until analysis. Plasma samples were extracted using protein precipitation and analyzed by liquid chromatography separation followed by mass spec detection (LC-MS/MS), using a standard curve for each compound. Plasma pharmacokinetic parameters were calculated for IV and oral dosing data by non-compartmental methods. Oral bioavailability was determined as the ratio of the dose-normalized plasma area under the curve (AUC) following oral dosing verses IV dosing. Plasma pharmacokinetic parameters for clearance, volume of distribution, half-life, and mean residence time (MRT) were determined in dogs from IV cassette administration studies. Two male dogs, typically weighing 8-12 kilograms, were fasted overnight prior to dosing. Compounds were prepared for IV dosing by addition to a vehicle, depending on the dose used. For a typical preparation, 1 mg per mL (IV) of up to 5 test compounds were added to vehicle comprised of 20% dimethyl sulfoxide (DMSO), 60% polyethylene glycol 400 (PEG400) and 20% water. IV formulation was administered to two dogs via the saphenous or cephalic vein. Blood was collected by the cephalic or jugular vein, typically at predose, 2, 8, 15, 30 mins, 1, 2, 4, 6, 8 and 24 hours post-dose. Samples were collected in K2EDTA tubes, stored on ice, and centrifuged. Plasma was transferred to a micro titer plate and stored at −70° C. until analysis. Plasma samples were extracted using protein precipitation and analyzed by liquid chromatography separation followed by mass spec detection (LC-MS/MS), using a standard curve for each compound. Plasma pharmacokinetic parameters were calculated by non-compartmental methods.

[4] = Plasma protein binding, dog plasma; type: in vitro ADME
Protocol: (§1) Binding of compounds to plasma proteins from rat and dog was determined by equilibrium dialysis of the appropriate species plasma at 37° C. for 4 hours in the presence of 2.5 uM of test compound. Plasma samples were precipitated and separated by centrifugation. The supernatant was analyzed by mass spec detection (LC-MS/MS), using a standard curve for each compound. The fraction of unbound compound was calculated per the following: • Fraction Unbound (fu)=Peak Area Ratiobuffer/Peak Area Ratioplasma • where • Peak Area Ratiobuffer=Peak area ratio of analyte/internal standard in buffer • Peak Area Ratioplasma=Peak area ratio of analyte/internal standard in plasma

[5] = Plasma protein binding, rat plasma; type: in vitro ADME
Protocol: as §1

[6] = test system: mitochondrial protein synthesis in HepG2 cells; test: Mitochondrial protein synthesis assay; type: cell-based; conditions: Homo sapiens, 96 h, 4 days, COX-I vs SDH-A / Janus Green, read-out: MPS IC50
Protocol: Inhibition of mitochondrial protein synthesis was assessed in HepG2 cells by comparing the levels of two subunits of oxidative phosphorylation enzyme complexes, subunit I of Complex IV (COX-I) and the 70 kDa subunit of Complex II (SDH-A). COX-I is mitochondrial DNA encoded and SDH-A is nuclear DNA encoded.

[7] = comparison compounds from WO2017/070024, read-out: Dog fu
[8] = comparison compounds from WO2017/070024, read-out: Rat fu

| Compound | MRT (in vivo [1]) [h] | Vd (in vivo [1]) [L/kg] | clearance (in vivo [1]) [L/h/kg] | Mtb Cho MITC95 [2] [µM] | Mtb Glu MITC95 [2] [µM] | MRT (in vivo [3]) [h] | clearance (in vivo [3]) [L/h/kg] | fraction unbound at 4 h, 2.5 uM ([4]; equilibrium dialysis, 37° C., 4 hours, 2.5 uM, read-out: Dog fu) | fraction unbound at 4 h, 2.5 uM ([5]; equilibrium dialysis, 37° C., 4 hours, 2.5 uM, read-out: Rat fu) | IC50 [6] [µM] | Vd (in vivo [3]) [L/kg] | fraction unbound at 4 h, 2.5 uM [4, 7] | fraction unbound at 4 h, 2.5 uM [5, 8] |
| --- | --- | --- | --- | --- | --- | --- | --- | --- | --- | --- | --- | --- | --- |
| COC(=O)NC[C@H]1CN(c2cc(F)c(N3CCS(=O)(=O)CC3)c(F)c2)C(=O)O1 [Example 1, methyl ({(5S)-3-[4-(1,1-dioxo-1λ^6-thiomorpholin-4-yl)-3,5-difluorophenyl]-2-oxo-1,3-oxazolidin-5-yl}methyl)carbamate] | 1.7 | 0.9 | 0.51 | 1.16 | 0.71 | 12.6 | 0.114 | 0.69 | 0.42 | – | – | – | – |
| CC(=O)NC[C@H]1CN(c2ccc(N3CCOCC3)c(F)c2)C(=O)O1 [linezolid] | – | – | – | 3.14 | 4.58 | – | – | – | – | 8 | – | – | – |
| NC[C@H]1CN(c2cc(F)c(N3CCOCC3)c(F)c2)C(=O)O1 [Example 59 from WO2017/070024] | 0.8 | 2 | 2.58 | – | – | 1.3 | 3.18 | – | – | – | 4.2 | 0.81 | 0.57 |
| NC[C@H]1CN(c2cnc(N3CCS(=O)(=O)CC3)c(F)c2)C(=O)O1 [Example 48 from WO2017/070024] | 0.5 | 2.5 | 5.1 | – | – | 1.3 | 1.08 | – | – | – | 1.5 | 0.87 | 0.83 |
